The results in this text go back to patent publication US8557812B2, “Small molecule inhibitors of anti-apoptotic BCL-2 family members and the uses thereof” (The Regents of the University of Michigan, priority 2004, dated 2013).

For the assay, the target named is Bcl-2 (Homo sapiens, UniProt P10415). Nature of the assay: Fluorescence polarization in vitro Bcl-2 binding assay. As for the experimental part: Bcl-2 used in this assay is a recombinant His-fused soluble protein. […] Inc., Research Triangle Park, N.C.). […] The unlabeled Bid peptide is used as the positive control. The Ki values were calculated using our developed equation for FP assay (Nikolovska-Coleska et al., Anal. Biochem., 2004, in press). The program for calculating a Ki value is available free of charge via the Internet at http://sw16.im.med.umich.edu/software/calc_ki/.
Sequence of Bcl-2 (P10415 92-205 limits assumed): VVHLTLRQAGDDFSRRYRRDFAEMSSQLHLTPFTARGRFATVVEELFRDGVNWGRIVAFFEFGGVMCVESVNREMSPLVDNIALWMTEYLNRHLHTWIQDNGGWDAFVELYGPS
In general terms: Polarisation of emitted light reports the rotation of a fluorescent probe.
`CN(CCCc1ccccc1)S(=O)(=O)c1cc(C(=O)N2CCc3ccc(S(=O)(=O)NCCc4ccccc4)cc3C2)c(O)c(O)c1O` [TM-1206] showed an IC50 not above 1000 nM.
As to `Oc1c(Cc2ccccc2)cc(-c2ccc(CCCCCc3ccccc3)cc2)c(O)c1O` [TW-1, 5-Benzyl-4′-(5-phenyl-pentyl)-biphenyl-2,3,4-triol], the IC50 is more than 1000 nM.
`CCCCCCCCCCc1ccc(-c2cc(Cc3ccccc3)c(O)c(O)c2O)cc1` [TW-2, 5-Benzyl-4′-decyl-biphenyl-2,3,4-triol] came in with a half-maximal inhibitory concentration (IC50) of more than 1000 nM.
In the case of `CC(C)(C)c1ccc(-c2cc(Cc3ccccc3)c(O)c(O)c2O)cc1` [TW-3, 5-Benzyl-4′-tert-butyl-biphenyl-2,3,4-triol], the IC50 is more than 1000 nM.
As to `CC(C)c1cc(-c2ccc(C(C)(C)C)cc2)c(O)c(O)c1O` [TW-4, 4′-tert-Butyl-5-isopropyl-biphenyl-2,3,4-triol], the IC50 was more than 1000 nM.
Compound `CCCCCCCCCCc1ccc(-c2cc(C(C)C)c(O)c(O)c2O)cc1` [TW-5, 4′-Decyl-5-isopropyl-biphenyl-2,3,4-triol] displayed an IC50 of more than 1000 nM.
Regarding `CCCCCCCCCCCc1ccc(-c2cc(CCCc3ccccc3)c(O)c(O)c2O)cc1` [TW-6, 5-(3-Phenyl-propyl)-4′-undecyl-biphenyl-2,3,4-triol], the IC50 was more than 1000 nM.
With `CCCCCCCCCCCc1ccc(-c2cc(CCc3ccc(C(C)(C)C)cc3)c(O)c(O)c2O)cc1` [TW-7, 5-[2-(4-tert-Butyl-phenyl)-ethyl]-4′-unedcyl-biphenyl-2,3,4-triol] the figure was more than 1000 nM; with `CCCCCCCCCCCc1ccc(-c2cc(Cc3ccc(C(C)(C)C)cc3)c(O)c(O)c2O)cc1` [TW-8, 5-(4-Tertbutyl-benzyl)-4′-undecyl-biphenyl-2,3,4-triol], more than 1000 nM.
With `CCCCCCCCCCCc1ccc(-c2cc(Cc3ccc(C(C)C)cc3)c(O)c(O)c2O)cc1` [TW-9, 5-(4-Isopropyl-benzyl)-4′-undecyl-biphenyl-2,3,4-triol] the figure was more than 1000 nM; with `Oc1c(Cc2ccccc2)cc(-c2ccc(CCCc3ccccc3)cc2)c(O)c1O` [TW-11, 5-Benzyl-4′-(3-phenyl-propyl)-biphenyl-2,3,4-triol], more than 1000 nM.
For `Oc1c(Cc2ccccc2)cc(-c2ccc(Cc3ccccc3)cc2)c(O)c1O` [TW-12, 5,4′-Dibenzyl-biphenyl-2,3,4-triol], the half-inhibitory concentration (IC50) was more than 1000 nM.
`CCCCCCCCCCCc1ccc(-c2cc(Cc3ccccc3C(C)C)c(O)c(O)c2O)cc1` [TW-14, 5-(2-Isopropyl-benzyl)-4′-undecyl-biphenyl-2,3,4-triol] yielded an IC50 of more than 1000 nM.
For `O=C(Nc1cc(S(=O)(=O)c2ccc(Cl)cc2)ccc1Cl)c1cc(Cc2ccccc2)c(O)c(O)c1O` [TW-17], the IC50 was more than 1000 nM.
`O=C(Nc1ccc(Oc2ccccc2)cc1)c1cc(CCc2ccccc2)c(O)c(O)c1O` [TW-20, N-(4-phenyloxy-phenyl)-2,3,4-trihydroxy-5-phenethyl-benzamide] returned a half-maximal inhibitory concentration (IC50) of more than 1000 nM.
With `O=C(Nc1cccc(S(=O)(=O)c2ccccc2)c1)c1cc(CCc2ccccc2)c(O)c(O)c1O` [TW-21, N-(3-Benzenesulfonyl-phenyl)-2,3,4-trihydroxy-5-phenethyl-benzamide] the figure was more than 1000 nM; with `CC(C)(C)c1ccc(CCc2cc(C(=O)Nc3cccc(S(=O)(=O)c4ccccc4)c3)c(O)c(O)c2O)cc1` [TW-22, N-(3-Benzenesulfonyl-phenyl)-5-[2-(4-tert-butyl-phenyl)-ethyl]-2,3,4-trihydroxy-benzamide], more than 1000 nM; with `CC(C)c1cccc(NC(=O)c2cc(CCc3ccccc3)c(O)c(O)c2O)c1` [TW-24, N-(3-isopropyl-phenyl)-2,3,4-trihydroxy-5-phenethyl-benzamide], more than 1000 nM.
In turn, `CC(C)(C)c1ccc(CNC(=O)c2cc(CCc3ccccc3)c(O)c(O)c2O)cc1` [TW-25, N-(4-tert-Butyl-benzyl)-2,3,4-trihydroxy-5-phenethyl-benzamide] yielded an IC50 of more than 1000 nM.
On to `O=C(Nc1ccc(Cl)c(Cl)c1)c1cc(CCc2ccccc2)c(O)c(O)c1O` [TW-27], for which the IC50 is more than 1000 nM.
With `Cc1ccccc1NC(=O)c1cc(CCc2ccccc2)c(O)c(O)c1O` [TW-28] the figure was more than 1000 nM.
With `O=C(Nc1cc(S(=O)(=O)c2ccc(Cl)cc2)ccc1Cl)c1cc(CCc2ccccc2)cc(O)c1O` [TW-34, N-[2-Chloro-5-(4-chloro-benzenesulfonyl)-phenyl]-2,3-dihydroxyl-phenethyl-benzamide] the figure was more than 1000 nM; with `CC(C)c1ccccc1Cc1cc(C(=O)Nc2cc(S(=O)(=O)c3ccc(Cl)cc3)ccc2Cl)c(O)c(O)c1O` [TW-35, N-[2-Chloro-5-(4-chloro-benzenesulfonyl)-phenyl]-2,3,4-trihydroxy-5-(2-isopropyl-benzyl)-benzamide], more than 1000 nM; with `CC(C)(C)c1ccc(CCc2cc(C(=O)Nc3ccc(S(=O)(=O)c4ccccc4C(C)(C)C)cc3)c(O)c(O)c2O)cc1` [TW-38, N-[(2-tert-Butyl-benzenesulfonyl)-phenyl]-2,3,4-trihydroxy-5-(4-tert-butyl-phenethyl)-benzamide], not above 1000 nM.
On to `CC(C)(C)c1ccc(Cc2cc(C(=O)Nc3cc(S(=O)(=O)c4ccc(Cl)cc4)ccc3Cl)c(O)c(O)c2O)cc1` [TW-39, N-[2-Chloro-5-(4-chloro-benzenesulfonyl)-phenyl]-2,3,4-trihydroxy-5-(4-tert-butyl-benzyl)-benzamide], for which the IC50 was more than 1000 nM.
To `CC(C)(C)c1ccc(Cc2cc(C(=O)Nc3ccc(S(=O)(=O)c4ccccc4C(C)(C)C)cc3)c(O)c(O)c2O)cc1` [TW-41, N-[4-(2-tert-Butyl-benzenesulfonyl)-phenyl]-2,3,4-trihydroxy-5-(4-tert-butyl-benzyl)-benzamide] belongs more than 1000 nM; to `CC(C)CCCc1ccccc1Cc1cc(C(=O)Nc2ccc(S(=O)(=O)c3ccccc3C(C)(C)C)cc2)c(O)c(O)c1O` [TW-42, N-[4-(2-tert-Butyl-benzenesulfonyl)-phenyl]-2,3,4-trihydroxy-5-(2-iso-hexyl-benzyl)-benzamide], more than 1000 nM.
For `CCc1cc(C(=O)Nc2cc(S(=O)(=O)c3ccc(Cl)cc3)ccc2Cl)c(O)c(O)c1O` [TW-45, N-[2-Chloro-5-(4-chloro-benzenesulfonyl)-phenyl]-2,3,4-trihydroxy-5-ethyl-benzamide], the IC50 was not above 1000 nM.
`O=C(Nc1cc(S(=O)(=O)c2ccc(Cl)cc2)ccc1Cl)c1ccc(O)c(O)c1O` [TW-46, N-[2-Chloro-5-(4-chloro-benzenesulfonyl)-phenyl]-2,3,4-trihydroxy-benzamide] displayed a half-inhibitory concentration (IC50) not above 1000 nM.
The compound `CC(C)CCCc1cc(C(=O)Nc2cc(S(=O)(=O)c3ccc(Cl)cc3)ccc2Cl)c(O)c(O)c1O` [TW-47, N-[2-Chloro-5-(4-chloro-benzenesulfonyl)-phenyl]-2,3,4-trihydroxy-5-iso-hexyl-benzamide] gave an IC50 not above 1000 nM.
`CC(C)c1ccccc1Cc1cc(C(=O)Nc2ccccc2)c(O)c(O)c1O` [TW-52, N-Phenyl-2,3,4-trihydroxy-5-(2-iso-propyl-benzyl)-benzamide] showed a concentration for half-maximal inhibition (IC50) of more than 1000 nM.
In the case of `CC(C)c1ccccc1Cc1cc(C(=O)Nc2ccccc2Cl)c(O)c(O)c1O` [TW-53, N-(2-Chloro-phenyl)-2,3,4-trihydroxy-5-(2-iso-propyl-benzyl)-benzamide], the IC50 is more than 1000 nM.
Compound `CNC(=O)c1cc(Cc2ccccc2C(C)C)c(O)c(O)c1O` [TW-55, N-Methyl-2,3,4-trihydroxy-5-(2-isopropyl-benzyl)-benzamide] showed an IC50 of more than 1000 nM.
To `O=C(Nc1ccc(S(=O)(=O)c2ccccc2)cc1)c1cc(Cc2ccccc2)c(O)c(O)c1O` [TW-56, N-(Benzenesulfonyl-phenyl)-2,3,4-trihydroxy-5-benzyl-benzamide] belongs more than 1000 nM; to `CC(C)(C)c1ccccc1S(=O)(=O)c1ccc(NC(=O)c2cc(S(=O)(=O)NCCCc3ccccc3)cc(O)c2O)cc1` [TW-159], not above 1000 nM.
In turn, `CC(C)(C)c1ccccc1S(=O)(=O)c1ccc(NC(=O)c2cc(S(=O)(=O)NCCCCc3ccccc3)cc(O)c2O)cc1` [TW-160] returned an IC50 of more than 1000 nM.
To `CC(C)(C)c1ccccc1S(=O)(=O)c1ccc(NC(=O)c2cc(S(=O)(=O)NCCc3ccccc3)cc(O)c2O)cc1` [TW-161] belongs more than 1000 nM; to `O=C(Nc1ccccc1)c1cc(S(=O)(=O)Nc2ccccc2)cc(O)c1O` [TW-162], more than 1000 nM; to `O=C(Nc1ccc(S(=O)(=O)N2CCN(c3ccccc3)CC2)cc1)c1cc(S(=O)(=O)N2CCc3ccccc3C2)cc(O)c1O` [TW-163], more than 1000 nM.
In the case of `O=C(Nc1ccc(S(=O)(=O)N2CCOCC2)cc1)c1cc(S(=O)(=O)N2CCc3ccccc3C2)cc(O)c1O` [TW-164], the IC50 was not above 1000 nM.
Compound `COc1ccc(S(=O)(=O)Nc2ccccc2C(C)C)cc1NC(=O)c1cc(S(=O)(=O)N2CCc3ccccc3C2)cc(O)c1O` [TW-165] displayed a half-maximal inhibitory concentration (IC50) not above 1000 nM.
To `O=C(NCCc1ccccc1)c1ccc(C2=Cc3c(c(O)c(O)c(O)c3-c3ccc(-c4ccccc4)cc3)C2=O)cc1` [TW-166] belongs not above 1000 nM; to `CC(C)(C)c1ccc(CCc2cc(O)c(O)c(C(=O)Nc3ccc(S(=O)(=O)N4CCN(c5ccccc5)CC4)cc3)c2)cc1` [TW-167], more than 1000 nM; to `CC(C)(C)c1ccc(CCc2cc(O)c(O)c(C(=O)Nc3ccc(S(=O)(=O)N4CCN(c5ncccn5)CC4)cc3)c2)cc1` [TW-169], not above 1000 nM.
With `CC(C)(C)c1ccc(CCc2cc(O)c(O)c(C(=O)Nc3ccc(S(=O)(=O)N4CCC(Cc5ccccc5)CC4)cc3)c2)cc1` [TW-170], the IC50 was more than 1000 nM.
With `O=C1C(c2ccc(C(=O)N3CCC(Cc4ccccc4)CC3)cc2)=Cc2c1c(O)c(O)c(O)c2-c1ccc(-c2ccccc2)cc1` [TW-172], the IC50 was not above 1000 nM.
Compound `O=C(Nc1ccc(S(=O)(=O)N2CCC(Nc3ccccc3-c3ccccc3)CC2)cc1)c1cc(S(=O)(=O)N2CCc3ccccc3C2)cc(O)c1O` [TW-173] registered a concentration for half-maximal inhibition (IC50) of more than 1000 nM.
Compound `CC(C)(C)c1ccccc1NC1CCN(S(=O)(=O)c2ccc(NC(=O)c3cc(S(=O)(=O)N4CCc5ccccc5C4)cc(O)c3O)cc2)CC1` [TW-174] yielded an IC50 of more than 1000 nM.

A word on the IC50: it is the midpoint of a concentration-inhibition curve.
